Test [1] relates to JAK3 kinase (STAT5 phosphorylation induced by IL-2 in HT-2 cells). The experiment in a line: JAK3-mediated cell assay (HT-2/IL-2 assay), STAT5 phosphorylation. As to conditions: HT2, compound 30 minutes, IL-2 20 ng/ml 10 minutes, HTRF phospho-STAT5 (Tyr694). The class given is cell-based. Here is the method: The inhibitory activities against JAK3 kinase at the cellular level were measured for the compounds prepared in the Examples through in vitro analysis of STAT5 phosphorylation induced by IL-2 stimulation in HT-2 cells. Specifically, STAT5 phosphorylation was analyzed using HTRF®phospho-STAT5 (Tyr694) assay kit (Cisbio, 64AT5PEG), which was purchased from Cisbio. HT-2 cells were cultured for 2 hours in growth factor-free medium. The cultured HT-2 cells were dispensed into 96-well plates by 50 ul so as to be a density of 2.5×10^5 cells/well. The compounds prepared in the previous Examples were prepared so as to be finally a 0.3% DMSO aqueous solution, and HT-2 cells was treated with the compounds for 30 minutes. After the compound treatment, IL-2 was prepared so as to be finally a concentration of 20 ng/ml, and HT-2 cells was treated for 10 minutes. The cells were then disrupted by treating lysis buffers for 30 minutes. The level of STAT5 phosphorylation was measured according to the instructions of HTRF® phospho-STAT5 assay kit, and the inhibitory activity of the compounds according to the invention was calculated. For the analysis of the results of each compound, Microsoft Excel was used, and IC50 values were calculated by SigmaPlot software.
Background: In TR-FRET formats the signal depends on donor and acceptor labels being close together.

The target of test [2] is Recombinant purified human BTK (Homo sapiens (Human), UniProt Q06187). The experiment in a line: BTK kinase inhibitory activity (ADP Glo assay). As to conditions: read-out: BTK IC50, ATP 10 uM, 1 hour 30° C.
Test [3] has as its target Recombinant purified human JAK3 (Homo sapiens (Human), UniProt P52333). Briefly: JAK3 kinase inhibitory activity (ADP Glo assay). As to conditions: read-out: JAK3 IC50, ATP 5 uM, 1 hour 30° C. For orientation: In ADP-Glo the light output rises with the ADP produced.

Recombinant purified human BTK, sequence (Q06187 whole entry): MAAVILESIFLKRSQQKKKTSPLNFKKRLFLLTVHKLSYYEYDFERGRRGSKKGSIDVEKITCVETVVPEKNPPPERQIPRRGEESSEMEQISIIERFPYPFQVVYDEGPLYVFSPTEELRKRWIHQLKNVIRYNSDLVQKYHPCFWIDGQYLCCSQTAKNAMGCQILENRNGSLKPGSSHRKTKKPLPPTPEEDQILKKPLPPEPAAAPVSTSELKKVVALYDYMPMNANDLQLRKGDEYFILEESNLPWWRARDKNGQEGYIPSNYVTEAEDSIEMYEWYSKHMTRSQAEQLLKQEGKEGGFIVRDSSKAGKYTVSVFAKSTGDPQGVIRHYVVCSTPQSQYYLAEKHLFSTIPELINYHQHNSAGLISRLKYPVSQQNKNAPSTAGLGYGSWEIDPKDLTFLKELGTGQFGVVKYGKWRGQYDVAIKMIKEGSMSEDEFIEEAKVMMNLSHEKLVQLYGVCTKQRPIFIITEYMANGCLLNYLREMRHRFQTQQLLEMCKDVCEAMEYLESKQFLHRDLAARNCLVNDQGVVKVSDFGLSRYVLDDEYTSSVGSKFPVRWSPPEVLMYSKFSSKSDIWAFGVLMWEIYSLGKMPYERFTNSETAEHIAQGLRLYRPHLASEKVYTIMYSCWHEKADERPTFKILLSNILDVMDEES
Recombinant purified human JAK3, sequence (P52333 whole entry): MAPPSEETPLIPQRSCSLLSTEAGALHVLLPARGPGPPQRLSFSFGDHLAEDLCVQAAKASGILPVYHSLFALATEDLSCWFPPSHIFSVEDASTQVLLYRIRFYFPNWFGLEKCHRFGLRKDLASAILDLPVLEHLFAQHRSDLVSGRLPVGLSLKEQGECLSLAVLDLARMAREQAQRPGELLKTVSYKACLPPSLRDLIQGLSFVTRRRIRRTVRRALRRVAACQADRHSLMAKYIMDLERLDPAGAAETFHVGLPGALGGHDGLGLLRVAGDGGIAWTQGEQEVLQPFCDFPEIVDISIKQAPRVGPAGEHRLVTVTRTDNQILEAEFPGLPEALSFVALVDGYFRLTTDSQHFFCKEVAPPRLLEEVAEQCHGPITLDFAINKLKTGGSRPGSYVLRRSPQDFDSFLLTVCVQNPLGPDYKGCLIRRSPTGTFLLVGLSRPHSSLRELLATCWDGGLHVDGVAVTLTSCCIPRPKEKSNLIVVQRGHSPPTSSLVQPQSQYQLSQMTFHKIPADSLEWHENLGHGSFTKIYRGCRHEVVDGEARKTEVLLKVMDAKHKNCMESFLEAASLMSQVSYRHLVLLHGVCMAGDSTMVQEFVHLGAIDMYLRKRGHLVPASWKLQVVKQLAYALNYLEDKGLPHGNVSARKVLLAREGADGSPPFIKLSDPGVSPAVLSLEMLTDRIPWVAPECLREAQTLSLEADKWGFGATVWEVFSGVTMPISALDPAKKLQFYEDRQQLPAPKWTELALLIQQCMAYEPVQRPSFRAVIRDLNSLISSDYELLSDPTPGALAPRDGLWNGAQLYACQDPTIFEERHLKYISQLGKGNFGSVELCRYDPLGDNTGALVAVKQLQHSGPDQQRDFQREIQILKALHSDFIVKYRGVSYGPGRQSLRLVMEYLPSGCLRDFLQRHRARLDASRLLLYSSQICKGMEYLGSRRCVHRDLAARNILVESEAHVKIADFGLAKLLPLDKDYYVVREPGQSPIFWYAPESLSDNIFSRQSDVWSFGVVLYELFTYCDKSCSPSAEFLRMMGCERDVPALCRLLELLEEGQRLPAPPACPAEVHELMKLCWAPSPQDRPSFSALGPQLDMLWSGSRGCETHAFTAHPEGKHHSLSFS

For `C=CC(=O)N1CC[C@@H](F)[C@@H](Nc2nc(Nc3cnn(CC)c3)nc3[nH]cc(Cl)c23)C1` [Example 1, 1-((3S,4R)-3-(5-chloro-2-(1-ethyl-1H-pyrazol-4-ylamino)-7H-pyrrolo[2,3-d]pyrimidin-4-ylamino)-4-fluoropiperidin-1-yl)prop-2-en-1-one], the IC50 came out at 30900 pM in test [1], 600 pM in test [2] and 100 pM in test [3].

On to `C=CC(=O)N1CC[C@@H](F)[C@@H](Nc2nc(Nc3cnn(CC(F)F)c3)nc3[nH]cc(Cl)c23)C1` [Example 2, 1-((3S,4R)-3-(5-chloro-2-(1-(2,2-difluoroethyl)-1H-pyrazol-4-ylamino)-7H-pyrrolo[2,3-d]pyrimidin-4-ylamino)-4-fluoropiperidin-1-yl)prop-2-en-1-one], for which the IC50 turned out to be 49000 pM in test [1], 800 pM in test [2] and 100 pM in test [3].

Take `C=CC(=O)N1CC[C@@H](F)[C@@H](Nc2nc(Nc3cnn(C4CC4)c3)nc3[nH]cc(Cl)c23)C1` [Example 3, 1-((3S,4R)-3-(5-chloro-2-(1-cyclopropyl-1H-pyrazol-4-ylamino)-7H-pyrrolo[2,3-d]pyrimidin-4-ylamino)-4-fluoropiperidin-1-yl)prop-2-en-1-one]: the IC50 amounted to 800 pM in test [2] and 100 pM in test [3].

In the case of `C=CC(=O)N1CC[C@@H](F)[C@@H](Nc2nc(Nc3cnoc3)nc3[nH]cc(Cl)c23)C1` [Example 4, 1-((3S,4R)-3-(5-chloro-2-(isoxazol-4-ylamino)-7H-pyrrolo[2,3-d]pyrimidin-4-ylamino)-4-fluoropiperidin-1-yl)prop-2-en-1-one], the figures for the IC50 in test [1], in test [2] and in test [3] were 51800 pM, 3200 pM and 200 pM, respectively.

For the compound `C=CC(=O)N1CC[C@@H](F)[C@@H](Nc2nc(Nc3cnsc3)nc3[nH]cc(Cl)c23)C1` [Example 5, 1-((3S,4R)-3-(5-chloro-2-(isothiazol-4-ylamino)-7H-pyrrolo[2,3-d]pyrimidin-4-ylamino)-4-fluoropiperidin-1-yl)prop-2-en-1-one], the IC50 in test [1] stood at 288000 pM; in test [2] it was 3900 pM; in test [3] it was 600 pM.

Consider `C=CC(=O)N1CC[C@@H](F)[C@@H](Nc2nc(Nc3cnn(CC)c3)nc3[nH]cc(C#N)c23)C1` [Example 6, 4-((3S,4R)-1-acryloyl-4-fluoropiperidin-3-ylamino)-2-(1-ethyl-1H-pyrazol-4-ylamino)-7H-pyrrolo[2,3-d]pyrimidine-5-carbonitrile], for which the IC50 stood at 900 pM in test [2] and 200 pM in test [3].

Regarding `C=CC(=O)N1CC[C@@H](F)[C@@H](Nc2nc(Nc3cnn(CC(F)F)c3)nc3[nH]cc(C#N)c23)C1` [Example 7, 4-((3S,4R)-1-acryloyl-4-fluoropiperidin-3-ylamino)-2-(1-(2,2-difluoroethyl)-1H-pyrazol-4-ylamino)-7H-pyrrolo[2,3-d]pyrimidine-5-carbonitrle], the IC50 was 800 pM in test [2] and 200 pM in test [3].

For `C=CC(=O)N1CC[C@@H](F)[C@@H](Nc2nc(Nc3cnn(C4CC4)c3)nc3[nH]cc(C#N)c23)C1` [Example 8, 4-((3S,4R)-1-acryloyl-4-fluoropiperidin-3-ylamino)-2-(1-cyclopropyl-1H-pyrazol-4-ylamino)-7H-pyrrolo[2,3-d]pyrimidine-5-carbonitrle], the IC50 in test [2] was determined as 900 pM; in test [3], 300 pM.

`C=CC(=O)N1CC[C@@H](F)[C@@H](Nc2nc(Nc3cnoc3)nc3[nH]cc(C#N)c23)C1` [Example 9, 4-((3S,4R)-1-acryloyl-4-fluoropiperidin-3-ylamino)-2-(isoxazol-4-ylamino)-7H-pyrrolo[2,3-d]pyrimidine-5-carbonitrle]: the IC50 in test [1] was 282000 pM; in test [2], 2200 pM; in test [3] it was 300 pM.

Consider `C=CC(=O)N1CC[C@@H](F)[C@@H](Nc2nc(Nc3cnn(CC)c3)nc3[nH]cc(C)c23)C1` [Example 10, 1-((3S,4R)-3-(2-(1-ethyl-1H-pyrazol-4-ylamino)-5-methyl-7H-pyrrolo[2,3-d]pyrimidin-4-ylamino)-4-fluoropiperidin-1-yl)prop-2-en-1-one], for which the IC50 in test [1] is 242000 pM; in test [2] it was 3300 pM; in test [3], 500 pM.

For the compound `C=CC(=O)N1CC[C@@H](F)[C@@H](Nc2nc(Nc3cnoc3)nc3[nH]cc(C)c23)C1` [Example 11, 1-((3S,4R)-4-fluoro-3-(2-(isoxazol-4-ylamino)-5-methyl-7H-pyrrolo[2,3-d]pyrimidin-4-ylamino)piperidin-1-yl)prop-2-en-1-one], the IC50 is 248000 pM in test [1], 9100 pM in test [2] and 700 pM in test [3].

For the compound `C=CC(=O)N1CC[C@H](F)[C@@H](Nc2nc(Nc3cnn(CC)c3)nc3[nH]cc(Cl)c23)C1` [Example 12, 1-((3S,4S)-3-(5-chloro-2-(1-ethyl-1H-pyrazol-4-ylamino)-7H-pyrrolo[2,3-d]pyrimidin-4-ylamino)-4-fluoropiperidin-1-yl)prop-2-en-1-one], the IC50 in test [1] worked out at 25400 pM; in test [2], 1000 pM; in test [3], 200 pM.

The IC50 is the point on the concentration scale where inhibition reaches its midpoint.

Values taken from US11078206B2, “Amino-fluoropiperidine derivatives as kinase inhibitor” (Daewoong Pharmaceutical Co., Ltd., priority 2017, dated 2021).
